The values that follow come from patent US20250011316A1, “PEROXIREDOXIN 3 INHIBITORS AND METHODS OF USE FOR TREATING CANCER” (Wake Forest University Health Sciences, priority 2022, published 2025).

≈ marks a conversion by molar mass, not a printed value. Some results are limits rather than exact numbers.

One series can be described thus: Solubility Assay (HPLC). Format: physicochemical. The note with it: HEPES/NaCl buffer, aqueous with cosolvent or surfactant or cyclodextrin, kinetic from dmso stock; 20 mM HEPES, 100 mM NaCl, pH 7.5, 18-24 hours at ambient temperature; read-out: Solubility. The method, then:
A 20 mM stock solution was made for each compound in DMSO. To measure solubility, 0.03-0.05 mL of the stock was added to 0.27 mL 20 mM HEPES, 100 mM NaCl, pH 7.5. The solution was mixed and rotated 18-24 hours at ambient temperature. The next day, solutions were centrifuged for 10 min at 20,000×g at […] to remove insoluble, solid material. Next, 100 μL of the supernatant containing the soluble compound was added to 900 μL DMSO and High Performance Liquid Chromatography was performed as described in Table 1 and either HIPLC gradient 1 (Table 2) or HIPLC gradient 2 (Table 3). For each analog, a 200 μM standard and a 20 μM standard were prepared and run in parallel (standards were dissolved completely in […]). The amount ofLcompound in the experimental sample was calculated by comparing the area under the curve for compound peak to the area for the closest standard and correcting for dilution.

Another series deals with T1, purified human PRX3 (Homo sapiens, UniProt P30048).
T1 construct: made in house
T1 sequence (P30048 62-256): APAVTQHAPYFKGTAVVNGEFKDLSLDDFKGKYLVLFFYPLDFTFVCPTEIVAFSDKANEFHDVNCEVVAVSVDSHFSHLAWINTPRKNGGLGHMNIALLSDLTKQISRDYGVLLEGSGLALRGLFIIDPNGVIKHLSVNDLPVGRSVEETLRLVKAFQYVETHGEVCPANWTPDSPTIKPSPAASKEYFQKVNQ
Briefly: Biochemical PRX3 Inhibition Assay (non-reducible crosslink by SDS PAGE + single adduct by MALDI-TOF MS). The conditions noted are these: 100 μM PRX3 with TRX2/thioredoxin reductase/NADPH system and hydrogen peroxide, 1-2 hr at 37° C. From the text: The compounds described herein generally react with two essential cysteine residues in the mitochondrial peroxidase PRX3, leading to the formation of a non-reducible, covalent crosslink of two PRX3 monomers. This crosslink inactivates PRX3. Increased PRX3 crosslink is associated with mitochondrial stress, increased cell death in cell models of malignant mesothelioma and is associated with decreased tumor volume in a mouse model. Cunniff et al. (2015) PloS one 10, e0127310.
(§1) To test the activity of compounds, two complimentary assays were used as described below. The Biochemical PRX3 Inhibition Assay tests the ability of each compound to crosslink PRX3 in a simple, in vitro system. In the Cellular Activity Assay, we are testing the ability of compounds to kill SK—OV-3 ovarian cancer cells.
This assay tests the ability of each compound to form a covalent adduct with PRX3. The assay is performed as described in Nelson et al. (2021) Antioxidants (Basel) 10, 150; and Cunniff et al. (2015) PloS one 10, e0127310, and follows the appearance of non-reducible PRX3 crosslinks by SDS PAGE gel electrophoresis and follows the appearance of single PRX3 adducts by mass spectrometry. For this assay, purified human PRX3, hydrogen peroxide (the PRX3 substrate) and all the components required to enable PRX3 to catalytically cycle (thioredoxin-thioredoxin reductase-NAPDH system) are included (details below).
The biochemical PRX3 Inhibition assay contains 100 μM PRX3, 50 μM human TRX2, 0.5 μM mouse thioredoxin reductase, and a NADPH regenerating system composed of 3.2 mM glucose 6-phosphate, 3.2 U/ml glucose 6-phosphate dehydrogenase and 0.4 mM NADPH. Samples are incubated for 1-2 hr at 37° C. with either 0.2 mM TS (positive control), compounds or an equivalent volume of DMSO (negative control). During this incubation, hydrogen peroxide is added to induce turnover of PRX3. Reactions are stopped by the addition of a buffer containing 100 mM dithiothreitol (to break disulfide bonds) and SDS (detergent to denature proteins). NADPH, Glucose 6-Phosphate, and glucose 6-phosphate dehydrogenase were purchased from Sigma Aldrich. PRX3, thioredoxin, and thioredoxin reductase were all purified to >98% purity in the Lowther laboratory according to protocols referenced in Nelson et al. (2021) Antioxidants (Basel) 10, 150; and Cunniff et al. (2015) PloS one 10, e0127310.
To measure the amount of PRX3 crosslink, proteins in the reaction were separated by SDS-polyacrylamide gel electrophoresis and stained for total protein using GelCode Blue (Life Technologies). The amount of unmodified PRX3 and TS-PRX3 crosslink was measured by densiometric analysis of the signal for the PRX3 band running at the MW of a PRX3 crosslink (˜46 kDa) compared to the PRX3 signal at the MW of the un-modified PRX3 (−23 kD).
To measure covalent adduct formation on a single PRX3 monomer, each reaction was exchanged into a mass spectrometry compatible buffer containing 40 mM ammonium citrate, pH 8.3 made in HPLC water. Sample was mixed 1:1 with a matrix solution containing 30 mg/mL sinapinic acid in 70% (vol/vol) acetonitrile, 0.2% formic acid and spotted to onto the sample plate. PRX3 mass was measured by MALDI-TOF MS analysis on a Bruker Daltonics MALDI-TOF MS spectrometer. Spectra were analyzed in FLEXAnalysis Software. The intensity of the reduced PRX3 peak (SH) and intensity of the analog adduct peak was determined and corrected for background signal at the adduct peak in the DMSO control. The fraction of single analog adduct in the monomer peak was determined by dividing the intensity of the adduct peak by the summed intensity of the SH and adduct peaks.

Series [1] relates to Enterococcus hirae (ATCC #10541). Briefly: Antimicrobial Activity Assay (MIC / growth inhibition). The conditions noted are these: ATCC10541; Enterococcus hirae; analogs tested at 20 μM final concentration. Format: cell-based. On the procedure: The overnight growth was then diluted into growth media to make a single solution of E. hirae with a final optical density at 600 nm=0.02 AU. A 20 mM stock solution of Thiostrepton in DMSO was made and used to make multiple dilutions of TS in DMSO. Each TS dilution (0.1 mL) was then added to a test tube containing 10 mL of the diluted E. hirae and grown at 37° C. overnight while shaking at 180 rpm. The next morning, each tube was visually inspected to determine if the cells grew. Final concentrations tested were 0.120, 0.090, 0.075, 0.060, 0.045, 0.030, and 0.015 μM TS. […] Three replicates were made on three separate days (n=9). […] For TS analogs, the dilute E. hirae was treated with 20 μM final concentration of each analog (three replicates each). […] DMSO was used as a positive control (complete cell growth) and 20 μM thiostrepton was used as a negative control.

The subject of series [2] is human SK—OV-3 ovarian cancer cells. Briefly: Cellular Activity Assay (cytotoxicity, crystal violet). The format is cell-based. The conditions noted are these: Homo sapiens, SK—OV-3 cells, treated for 48 hr, 0.1-100 μM, crystal violet absorbance at 540 nm.
From the text: as §1
The Cellular Activity Assay measures the EC50 of each compound in human SK—OV-3 ovarian cancer cells TS to be taken into the cell, transported to the mitochondria, and crosslink PRX3.
The cytotoxicity of compounds was measured as described in Nelson et al. (2021) Antioxidants (Basel) 10, 150; Cunniff et al. (2015) PloS one 10, e0127310; and Newick et al. (2012) PloS one 7, e39404. SK—OV-3 is an adherent, epithelial, adenocarcinoma cell line obtained from ATCC (ref #: HTB-77). SK—OV-3 cells are resistant to the commonly used chemotherapeutics, cis-platinum and doxorubicin. For this […], SK—OV-3 cells were plated in a 96-well plate. After 24 h recovery, the cells were treated for 48 hr with multiple concentrations of each compound ranging from 0.1-100 μM.
Cells were washed with PBS to remove dead cells and the remaining live cells were fixed with 3.0% formaldehyde and stained with 0.1% crystal violet. The amount of crystal violet was determined by reading the absorbance at 540 nm (crystal violet dye dissolved in 100% methanol) using a plate reader. The signal for crystal violet dye is proportional to the biomass of remaining live cells. GraphPad Prism9 software was used to calculate the effective inhibitory concentration (EC50) of test compounds. Results for each compound, are normalized to the amount of cells in control wells treated with the equivalent concentration of DMSO (negative control). TS or Compound 4 were included in each set of assays as a positive control.

Turning to `C=C(NC(=O)c1csc(C2CCN(C(=O)OC(C)(C)C)CC2)n1)C(=O)NC(=C)C(=O)OC` [Compound 1, Tert-butyl 4-(4-((3-((3-methoxy-3-oxoprop-1-en-2-yl)amino)-3-oxoprop-1-en-2-yl)carbamoyl)thiazol-2-yl)piperidine-1-carboxylate], in the series “Solubility Assay (HPLC)”, the solubility was in the range of 100 to 1000 µM (≈ 46.5 to 465 µg/mL). Besides, the “PRX3 Inhibition (Crosslink + Mono-adduct)” value (“PRX3 Inhibition” for short) on purified human PRX3 is recorded as “++ (50-90%)”. For the same compound, the MIC in series [1] was above 20 µM. In series [2], this compound came in with an EC50 of 1 to 10 µM.

As for `C=C(NC(=O)c1csc(-c2ccc(NC(=O)OC(C)(C)C)nc2)n1)C(=O)NC(=C)C(=O)OC` [Compound 2, Methyl 2-(2-(2-(6-((tert-butoxycarbonyl)amino)pyridine-3-yl)thiazole-4-carboxamido)acrylamido acrylate], in “Solubility Assay (HPLC)”, the solubility was below 100 µM. Also, on purified human PRX3, the “PRX3 Inhibition” value was “++ (50-90%)”. Also, the MIC in series [1] is above 20 µM. This compound also yielded an EC50 in series [2] (SK-OV-3, 48 h) of 1 to 10 µM.

On to `C=C(NC(=O)c1csc(C2CCCN(C(=O)OC(C)(C)C)C2)n1)C(=O)NC(=C)C(=O)OC` (stereo not drawn) [Compound 3, Tert-butyl 3-(4-((3-((3-methoxy-3-oxoprop-1-en-2-yl)amino)-3-oxoprop-1-en-2-yl)carbamoyl)thiazol-2-yl)piperidine-1-carboxylate], for which the solubility in “Solubility Assay (HPLC)” lay in the range of 100 to 1000 µM (≈ 46.5 to 465 µg/mL). Besides, on purified human PRX3, the “PRX3 Inhibition” value is recorded as “++ (50-90%)”. Moreover, the MIC in series [1] is above 20 µM. Besides, the EC50 in series [2] fell in the range of 10 to 25 µM.

`C=C(NC(=O)c1csc(-c2ccc(NC(=O)CCCCCBr)cc2)n1)C(=O)NC(=C)C(=O)OC` [Compound 4, Methyl 2-(2-(2-(4-(6-bromohexanamido)phenyl)thiazole-4-carboxamido)acrylamido)acrylate]: the solubility in “Solubility Assay (HPLC)” is below 100 µM. Moreover, the “PRX3 Inhibition” value on purified human PRX3 was “++ (50-90%)”. Further, in series [1], the MIC was above 20 µM. This compound also registered an EC50 in series [2] of 1 to 10 µM.

Take `C=C(NC(=O)c1csc(-c2ccc(NC(=O)OC(C)(C)C)cc2)n1)C(=O)NC(=C)C(=O)OC` [Compound 5, Methyl 2-(2-(2-(4-((tert-butoxycarbonyl)amino)phenyl)thiazole-4-carboxamido)acrylamido)acrylate]: the solubility in “Solubility Assay (HPLC)” was below 100 µM. For the same compound, at purified human PRX3, the “PRX3 Inhibition” value is listed as “+++ (>90%)”. The MIC in series [1] was above 20 µM. The compound also showed an EC50 in series [2] of 1 to 10 µM.

For the compound `C=C(NC(=O)c1csc(-c2ccc(C(=O)NCCCCCCOS(C)(=O)=O)nc2)n1)C(=O)NC(=C)C(=O)OC` [Compound 6, Methyl 2-(2-(2-(6-((6-((methylsulfonyl)oxy)hexyl)carbamoyl)pyridine-3-yl)thiazole-4-carboxamido)acrylamido)acrylate], the solubility in the series “Solubility Assay (HPLC)” was below 100 µM. For the same compound, the “PRX3 Inhibition” value on purified human PRX3 is on record as “+++ (>90%)”. The MIC in series [1] is above 20 µM. In series [2], this compound registered an EC50 of 1 to 10 µM.

Regarding `C=C(NC(=O)c1csc(-c2ccc(OC)cc2)n1)C(=O)NC(=C)C(=O)OC` [Compound 7, Methyl 2-(2-(2-(4-methoxyphenyl)thiazole-4-carboxamido)acrylamido)acrylate], in the series “Solubility Assay (HPLC)”, the solubility is below 100 µM. The “PRX3 Inhibition” value on purified human PRX3 is recorded as “++ (50-90%)”. In series [1], the MIC is above 20 µM. This compound showed a concentration for a half-maximal effect (EC50) in series [2] of 1 to 10 µM.

Take `C=C(NC(=O)c1csc(-c2ccc(CNC(=O)OC(C)(C)C)cc2)n1)C(=O)NC(=C)C(=O)OC` [Compound 8, Methyl 2-(2-(2-(4-(((tert-butoxycarbonyl)amino)methyl)phenyl)thiazole-4-carboxamido)acrylamido)acrylate]: the solubility in the series “Solubility Assay (HPLC)” was below 100 µM. Further, the “PRX3 Inhibition” value on purified human PRX3 is recorded as “+++ (>90%)”. The same compound displayed an MIC in series [1] above 20 µM. The compound also gave an EC50 in series [2] of 1 to 10 µM.

For `C=C(NC(=O)c1csc(C2=CCN(C(=O)OC(C)(C)C)CC2)n1)C(=O)NC(=C)C(=O)OC` [Compound 9, Tert-butyl 4-(4-((3-((3-methoxy-3-oxoprop-1-en-2-yl)amino)-3-oxoprop-1-en-2-yl)carbamoyl)thiazol-2-yl)-3,6-dihydropyridine-1(2H)-carboxylate], the solubility in the series “Solubility Assay (HPLC)” is below 100 µM. For the same compound, on purified human PRX3, the “PRX3 Inhibition” value is listed as “+++ (>90%)”. The compound also yielded an MIC in series [1] above 20 µM. The compound further showed an EC50 in series [2] of 1 to 10 µM.

As to `C=C(NC(=O)c1csc(N2CCN(C(=O)OC(C)(C)C)[C@@H](C)C2)n1)C(=O)NC(=C)C(=O)OC` [Compound 57, Tert-butyl (S)-4-(4-((3-((3-methoxy-3-oxoprop-1-en-2-yl)amino)-3-oxoprop-1-en-2-yl)carbamoyl)thiazol-2-yl)-2-methylpiperazine-1-carboxylate], in “Solubility Assay (HPLC)”, the solubility was below 100 µM. Also, the “PRX3 Inhibition” value at purified human PRX3 is “+++ (>90%)”. In series [2], this compound yielded an EC50 of 1 to 10 µM.

What is called solubility is the dissolved amount per volume that the medium holds. A word on the MIC: it is the smallest concentration in the dilution series that meets the test's criterion for growth inhibition. The EC50 is the concentration giving half of the maximal effect.
